Data as given in the NIST ThermoML archive (doi:10.1016/j.jct.2014.12.023).
± gives the expanded uncertainty stated by the source.

Test: activity coefficient (dimensionless); of the first substance listed, at infinite dilution; xn = mol fraction of the nth substance listed
Conditions: 87.4 kPa, Liquid, Chromatography, x1 = 0

Row | SMILES | activity coefficient (313 K) | activity coefficient (323 K) | activity coefficient (333 K) | activity coefficient (343 K)
1 | CCCC(C)=O [pentan-2-one] + O=S(=O)([N-]S(=O)(=O)C(F)(F)F)C(F)(F)F.O=S(=O)([N-]S(=O)(=O)C(F)(F)F)C(F)(F)F.c1ccc2cc(C[N+]3(CCCCCCCCC[N+]4(Cc5ccc6ccccc6c5)CCCC4)CCCC3)ccc2c1 | 0.432 ± 0.029 | 0.437 ± 0.029 | 0.444 ± 0.03 | 0.448 ± 0.03
2 | ClC(Cl)(Cl)Cl [tetrachloromethane] + O=S(=O)([N-]S(=O)(=O)C(F)(F)F)C(F)(F)F.O=S(=O)([N-]S(=O)(=O)C(F)(F)F)C(F)(F)F.c1ccc2cc(C[N+]3(CCCCCCCCC[N+]4(Cc5ccc6ccccc6c5)CCCC4)CCCC3)ccc2c1 | 1.45 ± 0.07 | 1.47 ± 0.071 | 1.51 ± 0.073 | 1.52 ± 0.074
3 | O=Cc1ccccc1 [benzaldehyde] + O=S(=O)([N-]S(=O)(=O)C(F)(F)F)C(F)(F)F.O=S(=O)([N-]S(=O)(=O)C(F)(F)F)C(F)(F)F.c1ccc2cc(C[N+]3(CCCCCCCCC[N+]4(Cc5ccc6ccccc6c5)CCCC4)CCCC3)ccc2c1 | 0.997 ± 0.044 | 0.997 ± 0.044 | 0.998 ± 0.044 | 0.999 ± 0.044
4 | CCCCCCC [heptane] + O=S(=O)([N-]S(=O)(=O)C(F)(F)F)C(F)(F)F.O=S(=O)([N-]S(=O)(=O)C(F)(F)F)C(F)(F)F.c1ccc2cc(C[N+]3(CCCCCCCCC[N+]4(Cc5ccc6ccccc6c5)CCCC4)CCCC3)ccc2c1 | 6.72 ± 0.38 | 5.97 ± 0.33 | 5.44 ± 0.31 | 4.65 ± 0.29
5 | c1ccncc1 [pyridine] + O=S(=O)([N-]S(=O)(=O)C(F)(F)F)C(F)(F)F.O=S(=O)([N-]S(=O)(=O)C(F)(F)F)C(F)(F)F.c1ccc2cc(C[N+]3(CCCCCCCCC[N+]4(Cc5ccc6ccccc6c5)CCCC4)CCCC3)ccc2c1 | 0.263 ± 0.028 | 0.266 ± 0.028 | 0.27 ± 0.028 | 0.287 ± 0.028
6 | CCN(CC)CC [triethylamine] + O=S(=O)([N-]S(=O)(=O)C(F)(F)F)C(F)(F)F.O=S(=O)([N-]S(=O)(=O)C(F)(F)F)C(F)(F)F.c1ccc2cc(C[N+]3(CCCCCCCCC[N+]4(Cc5ccc6ccccc6c5)CCCC4)CCCC3)ccc2c1 | 0.762 ± 0.098 | 1.22 ± 0.081 | 1.35 ± 0.068 | 1.45 ± 0.072
7 | CCO [ethanol] + O=S(=O)([N-]S(=O)(=O)C(F)(F)F)C(F)(F)F.O=S(=O)([N-]S(=O)(=O)C(F)(F)F)C(F)(F)F.c1ccc2cc(C[N+]3(CCCCCCCCC[N+]4(Cc5ccc6ccccc6c5)CCCC4)CCCC3)ccc2c1 | 1 ± 0.044 | 1.01 ± 0.045 | 0.937 ± 0.043 | 0.891 ± 0.041
8 | Cc1cccc(C)c1 [1,3-dimethylbenzene] + O=S(=O)([N-]S(=O)(=O)C(F)(F)F)C(F)(F)F.O=S(=O)([N-]S(=O)(=O)C(F)(F)F)C(F)(F)F.c1ccc2cc(C[N+]3(CCCCCCCCC[N+]4(Cc5ccc6ccccc6c5)CCCC4)CCCC3)ccc2c1 | 0.857 ± 0.042 | 0.924 ± 0.042 | 0.941 ± 0.042 | 0.996 ± 0.045
9 | O=C1CCCCC1 [cyclohexanone] + O=S(=O)([N-]S(=O)(=O)C(F)(F)F)C(F)(F)F.O=S(=O)([N-]S(=O)(=O)C(F)(F)F)C(F)(F)F.c1ccc2cc(C[N+]3(CCCCCCCCC[N+]4(Cc5ccc6ccccc6c5)CCCC4)CCCC3)ccc2c1 | 0.998 ± 0.044 | 0.998 ± 0.044 | 0.999 ± 0.044 | 1 ± 0.044
10 | CCCC=O [butanal] + O=S(=O)([N-]S(=O)(=O)C(F)(F)F)C(F)(F)F.O=S(=O)([N-]S(=O)(=O)C(F)(F)F)C(F)(F)F.c1ccc2cc(C[N+]3(CCCCCCCCC[N+]4(Cc5ccc6ccccc6c5)CCCC4)CCCC3)ccc2c1 | 0.448 ± 0.03 | 0.464 ± 0.03 | 0.487 ± 0.03 | 0.491 ± 0.03
11 | Cc1ccccc1 [toluene] + O=S(=O)([N-]S(=O)(=O)C(F)(F)F)C(F)(F)F.O=S(=O)([N-]S(=O)(=O)C(F)(F)F)C(F)(F)F.c1ccc2cc(C[N+]3(CCCCCCCCC[N+]4(Cc5ccc6ccccc6c5)CCCC4)CCCC3)ccc2c1 | 0.714 ± 0.035 | 0.721 ± 0.035 | 0.723 ± 0.036 | 0.727 ± 0.036
12 | CC#N [acetonitrile] + O=S(=O)([N-]S(=O)(=O)C(F)(F)F)C(F)(F)F.O=S(=O)([N-]S(=O)(=O)C(F)(F)F)C(F)(F)F.c1ccc2cc(C[N+]3(CCCCCCCCC[N+]4(Cc5ccc6ccccc6c5)CCCC4)CCCC3)ccc2c1 | 0.339 ± 0.028 | 0.341 ± 0.028 | 0.349 ± 0.028 | 0.372 ± 0.029
13 | Cc1ccccc1C [1,2-dimethylbenzene] + O=S(=O)([N-]S(=O)(=O)C(F)(F)F)C(F)(F)F.O=S(=O)([N-]S(=O)(=O)C(F)(F)F)C(F)(F)F.c1ccc2cc(C[N+]3(CCCCCCCCC[N+]4(Cc5ccc6ccccc6c5)CCCC4)CCCC3)ccc2c1 | 0.84 ± 0.039 | 0.852 ± 0.039 | 0.864 ± 0.04 | 0.894 ± 0.041
14 | CO [methanol] + O=S(=O)([N-]S(=O)(=O)C(F)(F)F)C(F)(F)F.O=S(=O)([N-]S(=O)(=O)C(F)(F)F)C(F)(F)F.c1ccc2cc(C[N+]3(CCCCCCCCC[N+]4(Cc5ccc6ccccc6c5)CCCC4)CCCC3)ccc2c1 | 0.821 ± 0.038 |  |  | 
15 | CCCCCC [hexane] + O=S(=O)([N-]S(=O)(=O)C(F)(F)F)C(F)(F)F.O=S(=O)([N-]S(=O)(=O)C(F)(F)F)C(F)(F)F.c1ccc2cc(C[N+]3(CCCCCCCCC[N+]4(Cc5ccc6ccccc6c5)CCCC4)CCCC3)ccc2c1 | 4.73 ± 0.24 | 3.9 ± 0.2 |  | 
16 | CCCCCCCC [octane] + O=S(=O)([N-]S(=O)(=O)C(F)(F)F)C(F)(F)F.O=S(=O)([N-]S(=O)(=O)C(F)(F)F)C(F)(F)F.c1ccc2cc(C[N+]3(CCCCCCCCC[N+]4(Cc5ccc6ccccc6c5)CCCC4)CCCC3)ccc2c1 | 8.51 ± 0.48 | 7.57 ± 0.41 | 7.4 ± 0.39 | 6.71 ± 0.37
17 | CCCO [propan-1-ol] + O=S(=O)([N-]S(=O)(=O)C(F)(F)F)C(F)(F)F.O=S(=O)([N-]S(=O)(=O)C(F)(F)F)C(F)(F)F.c1ccc2cc(C[N+]3(CCCCCCCCC[N+]4(Cc5ccc6ccccc6c5)CCCC4)CCCC3)ccc2c1 | 1.33 ± 0.083 | 1.07 ± 0.057 | 1.02 ± 0.045 | 1.01 ± 0.044
18 | C1COCCO1 [1,4-dioxane] + O=S(=O)([N-]S(=O)(=O)C(F)(F)F)C(F)(F)F.O=S(=O)([N-]S(=O)(=O)C(F)(F)F)C(F)(F)F.c1ccc2cc(C[N+]3(CCCCCCCCC[N+]4(Cc5ccc6ccccc6c5)CCCC4)CCCC3)ccc2c1 | 0.382 ± 0.029 | 0.397 ± 0.029 | 0.413 ± 0.03 | 0.451 ± 0.031
19 | CC(=O)O [acetic acid] + O=S(=O)([N-]S(=O)(=O)C(F)(F)F)C(F)(F)F.O=S(=O)([N-]S(=O)(=O)C(F)(F)F)C(F)(F)F.c1ccc2cc(C[N+]3(CCCCCCCCC[N+]4(Cc5ccc6ccccc6c5)CCCC4)CCCC3)ccc2c1 | 0.824 ± 0.04 | 0.767 ± 0.038 | 0.746 ± 0.036 | 0.74 ± 0.036
20 | C1CCCCC1 [cyclohexane] + O=S(=O)([N-]S(=O)(=O)C(F)(F)F)C(F)(F)F.O=S(=O)([N-]S(=O)(=O)C(F)(F)F)C(F)(F)F.c1ccc2cc(C[N+]3(CCCCCCCCC[N+]4(Cc5ccc6ccccc6c5)CCCC4)CCCC3)ccc2c1 | 3.83 ± 0.22 | 3.35 ± 0.19 | 2.98 ± 0.17 | 2.49 ± 0.16
21 | c1ccccc1 [benzene] + O=S(=O)([N-]S(=O)(=O)C(F)(F)F)C(F)(F)F.O=S(=O)([N-]S(=O)(=O)C(F)(F)F)C(F)(F)F.c1ccc2cc(C[N+]3(CCCCCCCCC[N+]4(Cc5ccc6ccccc6c5)CCCC4)CCCC3)ccc2c1 | 0.515 ± 0.031 | 0.517 ± 0.031 | 0.52 ± 0.031 | 0.574 ± 0.034
22 | Cc1ccc(C)cc1 [1,4-dimethylbenzene] + O=S(=O)([N-]S(=O)(=O)C(F)(F)F)C(F)(F)F.O=S(=O)([N-]S(=O)(=O)C(F)(F)F)C(F)(F)F.c1ccc2cc(C[N+]3(CCCCCCCCC[N+]4(Cc5ccc6ccccc6c5)CCCC4)CCCC3)ccc2c1 | 0.881 ± 0.04 | 0.9 ± 0.041 | 0.929 ± 0.042 | 0.992 ± 0.045
23 | ClCCCl [1,2-dichloroethane] + O=S(=O)([N-]S(=O)(=O)C(F)(F)F)C(F)(F)F.O=S(=O)([N-]S(=O)(=O)C(F)(F)F)C(F)(F)F.c1ccc2cc(C[N+]3(CCCCCCCCC[N+]4(Cc5ccc6ccccc6c5)CCCC4)CCCC3)ccc2c1 | 0.568 ± 0.032 | 0.569 ± 0.032 | 0.596 ± 0.033 | 0.613 ± 0.033
24 | O=C1CCCC1 [cyclopentanone] + O=S(=O)([N-]S(=O)(=O)C(F)(F)F)C(F)(F)F.O=S(=O)([N-]S(=O)(=O)C(F)(F)F)C(F)(F)F.c1ccc2cc(C[N+]3(CCCCCCCCC[N+]4(Cc5ccc6ccccc6c5)CCCC4)CCCC3)ccc2c1 | 0.318 ± 0.028 | 0.324 ± 0.028 | 0.33 ± 0.028 | 0.347 ± 0.028
25 | CCOC(C)=O [ethyl acetate] + O=S(=O)([N-]S(=O)(=O)C(F)(F)F)C(F)(F)F.O=S(=O)([N-]S(=O)(=O)C(F)(F)F)C(F)(F)F.c1ccc2cc(C[N+]3(CCCCCCCCC[N+]4(Cc5ccc6ccccc6c5)CCCC4)CCCC3)ccc2c1 | 0.541 ± 0.032 | 0.565 ± 0.032 | 0.601 ± 0.033 | 0.628 ± 0.034
26 | CC(C)O [propan-2-ol] + O=S(=O)([N-]S(=O)(=O)C(F)(F)F)C(F)(F)F.O=S(=O)([N-]S(=O)(=O)C(F)(F)F)C(F)(F)F.c1ccc2cc(C[N+]3(CCCCCCCCC[N+]4(Cc5ccc6ccccc6c5)CCCC4)CCCC3)ccc2c1 | 1.21 ± 0.061 | 1.09 ± 0.051 | 1.05 ± 0.048 | 0.992 ± 0.045
